Experimental data from US6376497B1, “Antifungal azole derivatives having a fluorinated vinyl group and process for preparing same” (Korea Research Institute of Chemical Technology, priority 1999, dated 2002).

What was measured:
Test in all cases: In vitro antifungal activity, microbroth dilution MIC
Assay type in all cases: cell-based
[1] = system: Aspergillus furnigatus B. 19119; settings: 4 to 48 hours; for Minimal inhibitory concentration (MIC): A furnigatus B. 19119, RPMI-1640, 35° C.; for Minimal inhibitory concentration(MIC), A furnigatus B. 19119: RPMI-1640, 35° C., no growth observed
Method: (§1) In vitro antifungal activities of the inventive antifungal compounds were evaluated using the test strains shown in Table VIII by the following microbroth dilution method which is a modified version of the procedure recommended by National Committee for Clinical Laboratory Standards(see National Committee for Clinical Laboratory Standards, 1992, Reference methods for broth dilution antifungal susceptibility testing of yeasts, Proposed standard M27-P, National Committee for clinical laboratory standards, Villanova, Pa; and National Committee for Clinical Laboratory Standards, 1995, Reference methods for broth dilution antifungal susceptibility testing of yeasts. Tentative standard M27-T, National Committee for clinical laboratory standards, Villanova, Pa).
(§2) Sabourad Dextrose Agar(Difco) was used as a culture medium, and RPMI-1640 broth(Sigma. Co. w/L-glutamine, wo/NaHCO3)(0.165 M MOPS, pH 7.0), as a dilution medium.
(§3) Each of the test strains were subcultured in Sabourad Dextrose Agar medium twice and a stain sample was taken from prominent colonies and suspended in sterile physiological saline solution in a cap tube. The turbidity of the suspension was adjusted to that of the Mcfarland 0.5 standard sample(approximately 10^6 CFU/ml). Then the suspension was diluted 500-fold with sterile RPMI-1640 liquid medium to 2×10^3 CFU/ml.
(§4) Each of the test compounds(the compounds obtained in Examples 1 to 150 and comparative compounds, i.e., fluconazole(FCZ) and itraconazole (ICZ)), was dissolved in DMSO to give a stock solution having a concentration of 4000 μg/ml and the stock solution was successively diluted to obtain test solutions having test compound concentrations of 200, 100, 50, 25, 12.5, 6.25, 3.13, 1.56, 0.78, 0.39, 0.20 and 0.10 μg/ml, respectively.
(§5) 0.1 ml portion of the test solutions were added to the wells of a sterile 96 well plate. Then, 0.1 ml portion of each of the test strain solutions were added successively to the wells and the plate was incubated at 35° C. for 4 to 48 hours.
(§6) Minimal inhibitory concentration(MIC) of each compound was defined as the concentration of the test compound where no growth of the strain could be observed.

[2] = system: Aspergillus niger A. 16404; settings: 4 to 48 hours; for Minimal inhibitory concentration (MIC): A. niger A. 16404, RPMI-1640, 35° C.; for Minimal inhibitory concentration(MIC), A. niger A. 16404: RPMI-1640, 35° C., no growth observed
Method: as §1, §2, §3, §4, §5, §6

[3] = system: Candida albicans A. 10231; settings: 4 to 48 hours; for Minimal inhibitory concentration(MIC), C. albicans A. 10231: RPMI-1640, 35° C., no growth observed
Method: as §1, §2, §3, §4, §5, §6

Candida albicans C1-2 = settings: 4 to 48 hours; for Minimal inhibitory concentration (MIC): C. albicans C1-2, RPMI-1640, 35° C.; for Minimal inhibitory concentration(MIC), C. albicans C1-2: RPMI-1640, 35° C., no growth observed
Method: as §1, §2, §3, §4, §5, §6

[4] = system: Candida albicans IFO. 1385; settings: 4 to 48 hours; for Minimal inhibitory concentration (MIC): C. albicans IFO. 1385, RPMI-1640, 35° C.; for Minimal inhibitory concentration(MIC), C. albicans IFO. 1385: RPMI-1640, 35° C., no growth observed
Method: as §1, §2, §3, §4, §5, §6

Candida krusei K. 11655 = settings: 4 to 48 hours; for Minimal inhibitory concentration (MIC): C. krusei K. 11655, RPMI-1640, 35° C.; for Minimal inhibitory concentration(MIC), C. krusei K. 11655: RPMI-1640, 35° C., no growth observed
Method: as §1, §2, §3, §4, §5, §6

[5] = system: Candida parapsitosis A. 7330; settings: 4 to 48 hours; for Minimal inhibitory concentration (MIC): C. parapsitosis A. 7330, RPMI-1640, 35° C.; for Minimal inhibitory concentration(MIC), C. parapsitosis A. 7330: RPMI-1640, 35° C., no growth observed
Method: as §1, §2, §3, §4, §5, §6

[6] = system: Candida pseudotropicalis K. 11658; settings: 4 to 48 hours; for Minimal inhibitory concentration (MIC): C. pseudotropicalis K. 11658, RPMI-1640, 35° C.; for Minimal inhibitory concentration(MIC), C. pseudotropicalis K. 11658: RPMI-1640, 35° C., no growth observed
Method: as §1, §2, §3, §4, §5, §6

[7] = system: Candida tropicalis A. 13803; settings: 4 to 48 hours; for Minimal inhibitory concentration (MIC): C. tropicalis A. 13803, RPMI-1640, 35° C.; for Minimal inhibitory concentration(MIC), C. tropicalis A. 13803: RPMI-1640, 35° C., no growth observed
Method: as §1, §2, §3, §4, §5, §6

[8] = system: Cryptococcus neoformans A. 34144; settings: 4 to 48 hours; for Minimal inhibitory concentration (MIC): Cry. neoformans A. 34144, RPMI-1640, 35° C.; for Minimal inhibitory concentration(MIC), Cry. neoformans A. 34144: RPMI-1640, 35° C., no growth observed
Method: as §1, §2, §3, §4, §5, §6

[9] = system: Cryptococcus neoformans B. 42419; settings: 4 to 48 hours; for Minimal inhibitory concentration (MIC): Cry. neoformans B. 42419, RPMI-1640, 35° C.; for Minimal inhibitory concentration(MIC), Cry. neoformans B. 42419: RPMI-1640, 35° C., no growth observed
Method: as §1, §2, §3, §4, §5, §6

[10] = system: Cryptococcus neoformans IFM. 40092; settings: 4 to 48 hours; for Minimal inhibitory concentration (MIC): Cry. neoformans IFM. 40092, RPMI-1640, 35° C.; for Minimal inhibitory concentration(MIC), Cry. neoformans IFM. 40092: RPMI-1640, 35° C., no growth observed
Method: as §1, §2, §3, §4, §5, §6

[11] = system: Torulopsis glabrata B. 16205; settings: 4 to 48 hours; for Minimal inhibitory concentration (MIC): T. glabrata B. 16205, RPMI-1640, 35° C.; for Minimal inhibitory concentration(MIC), T. glabrata B. 16205: RPMI-1640, 35° C., no growth observed
Method: as §1, §2, §3, §4, §5, §6

[12] = system: Trichophyton mentagrophytes A. 9129; settings: 4 to 48 hours; for Minimal inhibitory concentration (MIC): T. mentagrophytes A. 9129, RPMI-1640, 35° C.; for Minimal inhibitory concentration(MIC), T. mentagrophytes A. 9129: RPMI-1640, 35° C., no growth observed
Method: as §1, §2, §3, §4, §5, §6

[13] = system: Trichophyton mentagrophytes B. 32663; settings: 4 to 48 hours; for Minimal inhibitory concentration (MIC): T. mentagrophytes B. 32663, RPMI-1640, 35° C.; for Minimal inhibitory concentration(MIC), T. mentagrophytes B. 32663: RPMI-1640, 35° C., no growth observed
Method: as §1, §2, §3, §4, §5, §6

| Minimal inhibitory concentration(MIC), A furnigatus B. 19119 [1] | Minimal inhibitory concentration(MIC), A. niger A. 16404 [2] | Minimal inhibitory concentration(MIC), C. albicans A. 10231 [3] | Minimal inhibitory concentration(MIC), C. albicans C1-2 (Candida albicans C1-2) | Minimal inhibitory concentration(MIC), C. albicans IFO. 1385 [4] | Minimal inhibitory concentration(MIC), C. krusei K. 11655 (Candida krusei K. 11655) | Minimal inhibitory concentration(MIC), C. parapsitosis A. 7330 [5] | Minimal inhibitory concentration(MIC), C. pseudotropicalis K. 11658 [6] | Minimal inhibitory concentration(MIC), C. tropicalis A. 13803 [7] | Minimal inhibitory concentration(MIC), Cry. neoformans A. 34144 [8] | Minimal inhibitory concentration(MIC), Cry. neoformans B. 42419 [9] | Minimal inhibitory concentration(MIC), Cry. neoformans IFM. 40092 [10] | Minimal inhibitory concentration(MIC), T. glabrata B. 16205 [11] | Minimal inhibitory concentration(MIC), T. mentagrophytes A. 9129 [12] | Minimal inhibitory concentration(MIC), T. mentagrophytes B. 32663 [13] | SMILES | other results |
| --- | --- | --- | --- | --- | --- | --- | --- | --- | --- | --- | --- | --- | --- | --- | --- | --- |
| – | – | – | – | – | – | – | – | – | – | – | – | – | – | – | Cc1ccc(C(=C(F)OCC2COC(Cn3ccnc3)(c3ccc(F)cc3F)O2)C(F)(F)F)cc1C (mixture of isomers) [Ex. 56] | Minimal inhibitory concentration (MIC) [1]: 50.0 mg/L; Minimal inhibitory concentration (MIC) [2]: >100 mg/L; Minimal inhibitory concentration (MIC) ([3]; C. albicans A. 10231, RPMI-1640, 35° C.): 12.5 mg/L; Minimal inhibitory concentration (MIC) (Candida albicans C1-2): 12.5 mg/L; Minimal inhibitory concentration (MIC) [4]: 0.78 mg/L; Minimal inhibitory concentration (MIC) (Candida krusei K. 11655): >100 mg/L; Minimal inhibitory concentration (MIC) [5]: >100 mg/L; Minimal inhibitory concentration (MIC) [6]: >100 mg/L; Minimal inhibitory concentration (MIC) [7]: 100 mg/L; Minimal inhibitory concentration (MIC) [8]: 1.56 mg/L; Minimal inhibitory concentration (MIC) [9]: 0.78 mg/L; Minimal inhibitory concentration (MIC) [10]: 0.20 mg/L; Minimal inhibitory concentration (MIC) [11]: 6.25 mg/L; Minimal inhibitory concentration (MIC) [12]: 6.25 mg/L; Minimal inhibitory concentration (MIC) [13]: 3.13 mg/L |
| >100 mg/L | >100 mg/L | 25.0 mg/L | 25.0 mg/L | 1.56 mg/L | >100 mg/L | >100 mg/L | >100 mg/L | 100 mg/L | 1.56 mg/L | 3.13 mg/L | 0.39 mg/L | 50.0 mg/L | 6.25 mg/L | 3.13 mg/L | Cc1cccc(C(=C(F)N2CCN(c3ccc(OCC4COC(Cn5ccnc5)(c5ccc(Cl)cc5Cl)O4)cc3)CC2)C(F)(F)F)c1 (mixture of isomers) [Ex. 125] | – |
| >100 mg/L | >100 mg/L | >100 mg/L | >100 mg/L | 6.25 mg/L | >100 mg/L | >100 mg/L | >100 mg/L | >100 mg/L | 3.13 mg/L | 6.25 mg/L | – | >100 mg/L | 50.0 mg/L | 50.0 mg/L | CCc1ccc(C(=C(F)Oc2ccc(OCC3COC(Cn4ccnc4)(c4ccc(Cl)cc4Cl)O3)cc2)C(F)(F)F)cc1 (mixture of isomers) [Ex. 95] | – |
| >100 mg/L | 100 mg/L | 100 mg/L | 100 mg/L | 6.25 mg/L | >100 mg/L | >100 mg/L | >100 mg/L | >100 mg/L | 1.56 mg/L | 1.56 mg/L | 0.78 mg/L | >100 mg/L | 100 mg/L | 100 mg/L | FC(=Cc1ccccc1)Oc1ccc(OCC2COC(Cn3ccnc3)(c3ccc(Cl)cc3Cl)O2)cc1 (mixture of isomers) [Ex. 88] | – |
| >100 mg/L | >100 mg/L | 100 mg/L | 100 mg/L | 12.5 mg/L | >100 mg/L | >100 mg/L | >100 mg/L | >100 mg/L | 1.56 mg/L | 1.56 mg/L | 0.78 mg/L | >100 mg/L | >100 mg/L | >100 mg/L | FC(OCC1COC(Cn2cncn2)(c2ccc(Cl)cc2Cl)O1)=C(c1ccc(Cl)cc1)C(F)(F)F (mixture of isomers) [Ex. 86] | – |
| – | – | – | – | – | – | – | – | – | – | – | – | – | – | – | FC(=Cc1ccc2c(c1)OCO2)OCC1COC(Cn2ccnc2)(c2ccc(F)cc2F)O1 (mixture of isomers) [Ex. 46] | Minimal inhibitory concentration (MIC) [1]: 1.56 mg/L; Minimal inhibitory concentration (MIC) [2]: 12.5 mg/L; Minimal inhibitory concentration (MIC) (Candida albicans C1-2): 25.0 mg/L; Minimal inhibitory concentration (MIC) [4]: ≦0.10 μg/ml; Minimal inhibitory concentration (MIC) (Candida krusei K. 11655): 25.0 mg/L; Minimal inhibitory concentration (MIC) [5]: 25.0 mg/L; Minimal inhibitory concentration (MIC) [6]: 12.5 mg/L; Minimal inhibitory concentration (MIC) [7]: 50.0 mg/L; Minimal inhibitory concentration (MIC) [8]: 0.78 mg/L; Minimal inhibitory concentration (MIC) [9]: 0.78 mg/L; Minimal inhibitory concentration (MIC) [10]: ≦0.10 μg/ml; Minimal inhibitory concentration (MIC) [11]: 12.5 mg/L; Minimal inhibitory concentration (MIC) [12]: 0.39 mg/L; Minimal inhibitory concentration (MIC) [13]: 0.20 mg/L |
| >100 mg/L | >100 mg/L | – | >100 mg/L | 1.56 mg/L | 3.13 mg/L | 3.13 mg/L | 1.56 mg/L | >100 mg/L | 0.78 mg/L | 0.78 mg/L | ≦0.10 μg/ml | >100 mg/L | 12.5 mg/L | 6.25 mg/L | Cc1ccc(C(=C(F)N2CCN(c3ccc(OCC4COC(Cn5ccnc5)(c5ccc(Cl)cc5Cl)O4)cc3)CC2)C(F)(F)F)cc1 (mixture of isomers) [Ex. 126] | – |
